Laboratory results: EP0079675A1, “Oxazolidinedione derivatives” (PFIZER INC., priority 1981, dated 1983)

Assays:
[1] = molecular target: T1, aldose reductase enzyme obtained from calf lens (Bos taurus, UniProt P16116); assay: inhibition of aldose reductase enzyme activity (procedure of S. Hayman et al., modified by K. Sestanj et al.); format: biochemical; conditions: partially purified calf lens aldose reductase, read-out: Percent Inhibition (%); for inhibition at 10 µM: 10^-5M; for inhibition at 1 µM: 10^-6M; for inhibition at 0.1 µM: 10^-7M
T1 construct: partially purified aldose reductase enzyme obtained from calf lens; from tissue; host or cells: calf lens
Experimental: (§1) The activity of the compounds of the present invention, as agents for the control of chronic diabetic complications, is determined by their ability to successfully pass one or more of the following standard biological or pharmacological tests, viz., (1) measuring their ability to inhibit the enzyme activity of isolated aldose reductase; (2) measuring their ability to reduce or inhibit sorbitol accumulation in the sciatic nerve of acutely streptozotocinized (i.e., diabetic) rats; (3) measuring their ability to reverse already-elevated sorbitol levels in the sciatic nerve and lens of chronic streptozotocin-induced diabetic rats; (4) measuring their ability to prevent or inhibit galactitol formation in the lens of acutely galactosemic rats, and (5) measuring their ability to delay cataract formation and reduce the severity of lens opacities in chronic galactosemic rats.
The following s^piro-oxindole oxazolidinedione final products of Examples 1-4, respectively, were tested for their ability to reduce or inhibit aldose reductase enzyme activity via the procedure of S. Hayman et al., as described in the Journal of Biological Chemistry, Vol 240, p.. 877 (1965) and as modified by K. Sestanj et al. in U.S. Patent No. 3,821,383. In every case, the substrate employed was partially purified aldose reductase enzyme obtained from calf lens.

[2] = system: sorbitol levels in diabetic rats; assay: inhibition of sorbitol formation/accumulation in diabetic rats; format: in vivo; conditions: oral route, dose levels ranging from 0.5 mg./kg. to 20 mg./kg.
Source text: As previously indicated, the spiro-oxindole oxazolidinedione compounds of this invention are readily adapted to therapeutic use as aldose reductase inhibitors for the control of chronic diabetic com^pli- cations, in view of their ability to reduce lens sorbitol levels in diabetic subjects to a statistically significant degree. […] Furthermore, the herein described compounds of this invention can be administered by either the oral or parenteral routes of administration. […]
as §1

inhibition at 10 µM [1] [%]	inhibition at 1 µM [1] [%]	inhibition at 0.1 µM [1] [%]	inhibition at 100 µM ([1]; 10^-4M) [%]	SMILES	inhibit the formation of sorbitol levels [2]
87	65	25		O=C1NC(=O)C2(O1)C(=O)N(c1ccc(F)cc1)c1ccc(F)cc12 (centres unmarked) [Product of Example 1, 1-(p-fluorophenyl)-5-fluoro-spiro-[indoline-3,5-oxazolidine]-2,2',4'-trione]	
80	45	17		CC(C)N1C(=O)C2(OC(=O)NC2=O)c2cc(Cl)ccc21 (centres unmarked) [Product of Example 2, 1-isopropyl-5-chloro-s^piro-[indoline-3,5'-oxazolidine]-2,2',4'-trione]	
67	31	10		CN1C(=O)C2(OC(=O)NC2=O)c2cc(Cl)ccc21 (centres unmarked) [Product of Example 3]	
89	81	60	100	O=C1NC(=O)C2(O1)C(=O)N(Cc1ccc(Cl)cc1)c1ccc(Cl)cc12 (centres unmarked) [Product of Example 4, 1-(p-chlorobenzyl)-5-chloro-spiro-(indoline-3,5'-oxazolidine]-2,2',4'-trione]	to a significantly high degree
